Measured values taken from US20050197338A1, “Substituted pyrazole urea compounds for the treatment of inflammation” (priority 2003, published 2005).

Target: T1, human IKK-2 (rhIKK-2 homodimer) (Homo sapiens, UniProt O14920)
T1 construct: FLAG (DYKDDDDKD) (C); made in house; host or cells: insect cells (baculovirus, pFastBac)
T1 sequence (O14920 1-756): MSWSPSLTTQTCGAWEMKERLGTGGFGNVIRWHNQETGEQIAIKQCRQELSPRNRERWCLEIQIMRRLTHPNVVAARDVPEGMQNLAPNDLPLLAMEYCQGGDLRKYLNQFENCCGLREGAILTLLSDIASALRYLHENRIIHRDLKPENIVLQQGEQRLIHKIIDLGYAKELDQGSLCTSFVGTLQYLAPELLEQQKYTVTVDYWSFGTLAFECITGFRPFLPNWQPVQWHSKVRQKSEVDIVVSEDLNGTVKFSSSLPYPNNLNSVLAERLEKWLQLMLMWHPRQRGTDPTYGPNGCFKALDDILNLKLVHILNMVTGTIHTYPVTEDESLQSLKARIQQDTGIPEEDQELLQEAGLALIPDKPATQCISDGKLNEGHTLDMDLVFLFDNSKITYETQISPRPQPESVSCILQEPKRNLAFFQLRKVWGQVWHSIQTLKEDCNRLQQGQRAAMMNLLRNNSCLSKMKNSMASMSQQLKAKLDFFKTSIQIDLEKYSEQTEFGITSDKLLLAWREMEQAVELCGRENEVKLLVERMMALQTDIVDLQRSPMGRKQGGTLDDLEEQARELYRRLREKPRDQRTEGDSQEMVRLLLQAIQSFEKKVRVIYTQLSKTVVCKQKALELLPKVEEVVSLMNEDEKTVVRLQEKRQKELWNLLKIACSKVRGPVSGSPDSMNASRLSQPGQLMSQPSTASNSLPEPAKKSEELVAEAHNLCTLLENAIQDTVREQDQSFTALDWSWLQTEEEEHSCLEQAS
Experiment: IKK-2 Resin Enzyme Assay (Human IKK-2 Enzyme Assay)
Format: biochemical
Conditions: human IKK-2, resin enzyme assay; read-out: IC50 (μM) hIKK-2
Summary of the method: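 C-terminally FLAG-tagged human IKK-2 homodimer, baculovirus-expressed in insect cells and anti-FLAG purified. Reaction mix: 5 μM biotinylated IκBα peptide (Ser32/Ser36 region), 1 μM ATP with [γ-33P]ATP, 2 mM MgCl2, 2 mM MnCl2, 10 mM NaF, 1 mM DTT, 25 mM HEPES pH 7.6. Incubated 30 min at 25 °C; IC50 derived.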

Compound | IC50
NC(=O)Nc1cn(-c2ccc(Br)c(C(F)(F)F)c2)nc1C(N)=O [Example 1, 4-[(aminocarbonyl)amino]-1-[4-bromo-3-(trifluoromethyl)phenyl]-1H-pyrazole-3-carboxamide] | 0.307 µM
CCOc1cc(-n2cc(NC(N)=O)c(C(N)=O)n2)ccc1Br [Example 3, 4-[(aminocarbonyl)amino]-1-(4-bromo-3-ethoxyphenyl)-1H-pyrazole-3-carboxamide] | 1.35 µM
Cc1cc(I)ccc1-n1cc(NC(N)=O)c(C(N)=O)n1 [Example 4, 1-(4-iodo-2-methyl-phenyl)-4-ureido-1H-pyrazole-3-carboxylic acid amide] | 2.87 µM
Cc1cc(-c2cccc(O)c2)ccc1-n1cc(NC(N)=O)c(C(N)=O)n1 [Example 5, 4-[(aminocarbonyl)amino]-1-(3′-hydroxy-3-methyl-1,1′-biphenyl-4-yl)-1H-pyrazole-3-carboxamide] | 5.09 µM
NC(=O)Nc1cn(-c2ccc(-c3cccc(O)c3)c(Cl)c2)nc1C(N)=O [Example 7, 4-[(aminocarbonyl)amino]-1-(2-chloro-3′-hydroxy-1,1′-biphenyl-4-yl)-1H-pyrazole-3-carboxamide] | 0.355 µM
Cc1cc(-n2cc(NC(N)=O)c(C(N)=O)n2)ccc1I [Example 8, 1-(4-iodo-3-methyl-phenyl)-4-ureido-1H-pyrazole-3-carboxylic acid amide] | 0.0676 µM
CNC(=O)Nc1cn(-c2cccc(Br)c2)nc1C(N)=O [Example 15, 1-(3-bromophenyl)-4-{[(methylamino)carbonyl]amino}-1H-pyrazole-3-carboxamide] | 8.05 µM
CNC(=O)Nc1cn(-c2ccc(Br)cc2)nc1C(N)=O [Example 16, 1-(4-bromophenyl)-4-{[(methylamino)carbonyl]amino}-1H-pyrazole-3-carboxamide] | 3.1 µM
NC(=O)Nc1cn(-c2ccc(Br)cc2)nc1C(N)=O [Example 19, 1-(1-(4-bromophenyl)-3-carbamoyl-1H-pyrazol-4-yl)urea] | 0.31 µM
NC(=O)Nc1cn(-c2cccc(-c3ccc(F)cc3O)c2)nc1C(N)=O [Example 92, 4-[(aminocarbonyl)amino]-1-(4′-fluoro-2′-hydroxy-1,1′-biphenyl-3-yl)-1H-pyrazole-3-carboxamide] | 6.61 µM
NC(=O)Nc1cn(-c2cccc(-c3cc(F)ccc3O)c2)nc1C(N)=O [Example 93, 4-[(aminocarbonyl)amino]-1-(5′-fluoro-2′-hydroxy-1,1′-biphenyl-3-yl)-1H-pyrazole-3-carboxamide] | 3.1 µM
N#CCOc1ccc(F)cc1-c1cccc(-n2cc(NC(N)=O)c(C(N)=O)n2)c1 [Example 94, 4-[(aminocarbonyl)amino]-1-[2′-(cyanomethoxy)-5′-fluoro-1,1′-biphenyl-3-yl]-1H-pyrazole-3-carboxamide] | 0.22 µM
NC(=O)Nc1cn(-c2ccc(-c3ccc(C(=O)O)c(F)c3)cc2)nc1C(N)=O [Example 97, 4′-{3-(aminocarbonyl)-4-[(aminocarbonyl)amino]-1H-pyrazol-1-yl}-3-fluoro-1,1′-biphenyl-4-carboxylic acid] | 0.14 µM
NC(=O)Nc1cn(-c2ccc(-c3ccc(F)cc3O)cc2)nc1C(N)=O [Example 98, 4-[(aminocarbonyl)amino]-1-(4′-fluoro-2′-hydroxy-1,1′-biphenyl-4-yl)-1H-pyrazole-3-carboxamide] | 1.04 µM
NC(=O)Nc1cn(-c2ccc(-c3cc(F)ccc3O)cc2)nc1C(N)=O [Example 99, 4-[(aminocarbonyl)amino]-1-(5′-fluoro-2′-hydroxy-1,1′-biphenyl-4-yl)-1H-pyrazole-3-carboxamide] | 0.75 µM
N#Cc1ccc(-c2ccc(-n3cc(NC(N)=O)c(C(N)=O)n3)cc2)cc1 [Example 100, 4-[(aminocarbonyl)amino]-1-(4′-cyano-1,1′-biphenyl-4-yl)-1H-pyrazole-3-carboxamide] | 1.15 µM

More lines, now with the values ahead:

IC50 | Compound
8.07 µM | NC(=O)Nc1cn(-c2ccc(-c3ccccc3)cc2)nc1C(N)=O [Example 101, 4-[(aminocarbonyl)amino]-1-(1,1′-biphenyl-4-yl)-1H-pyrazole-3-carboxamide]
11.4 µM | NC(=O)Nc1cn(-c2ccc(-c3cc4ccccc4[nH]3)cc2)nc1C(N)=O [Example 141, 4-[(aminocarbonyl)amino]-1-[4-(1H-indol-2-yl)phenyl]-1H-pyrazole-3-carboxamide]
4.79 µM | CN(C)CCN(C)C(=O)c1ccc(-c2ccc(-n3cc(NC(N)=O)c(C(N)=O)n3)cc2)cc1F [Example 160, 4-[(aminocarbonyl)amino]-1-(4′-{[[2-(dimethylamino)ethyl](methyl)amino]carbonyl}-3′-fluoro-1,1′-biphenyl-4-yl)-1H-pyrazole-3-carboxamide]
13.7 µM | NC(=O)Nc1cn(-c2ccc(-c3ccc(C(=O)OCc4ccccc4F)c(F)c3)cc2)nc1C(N)=O [Example 162, 2-fluorobenzyl 4′-{3-(aminocarbonyl)-4-[(aminocarbonyl)amino]-1H-pyrazol-1-yl}-3-fluoro-1,1′-biphenyl-4-carboxylate]
16.6 µM | NC(=O)Nc1cn(-c2ccc(-c3ccc(C(=O)OCc4cccc(F)c4)c(F)c3)cc2)nc1C(N)=O [Example 163, 3-fluorobenzyl 4′-{3-(aminocarbonyl)-4-[(aminocarbonyl)amino]-1H-pyrazol-1-yl}-3-fluoro-1,1′-biphenyl-4-carboxylate]
11.3 µM | NC(=O)Nc1cn(-c2ccc(-c3ccc(C(=O)OCc4ccc(F)cc4)c(F)c3)cc2)nc1C(N)=O [Example 164, 4-fluorobenzyl 4′-{3-(aminocarbonyl)-4-[(aminocarbonyl)amino]-1H-pyrazol-1-yl}-3-fluoro-1,1′-biphenyl-4-carboxylate]
0.044 µM | N#CCOc1ccc(F)cc1-c1ccc(-n2cc(NC(N)=O)c(C(N)=O)n2)cc1 [Example 172, 4-[(aminocarbonyl)amino]-1-[2′-(cyanomethoxy)-5′-fluoro-1,1′-biphenyl-4-yl]-1H-pyrazole-3-carboxamide]
0.15 µM | N#CCOc1cc(F)ccc1-c1ccc(-n2cc(NC(N)=O)c(C(N)=O)n2)cc1 [Example 173, 4-[(aminocarbonyl)amino]-1-[2′-(cyanomethoxy)-4′-fluoro-1,1′-biphenyl-4-yl]-1H-pyrazole-3-carboxamide]
3.67 µM | CC(C)(C)OC(=O)COc1cccc(-c2ccc(-n3cc(NC(N)=O)c(C(N)=O)n3)cc2)c1 [Example 174, tert-butyl [(4′-{3-(aminocarbonyl)-4-[(aminocarbonyl)amino]-1H-pyrazol-1-yl}-1,1′-biphenyl-3-yl)oxy]acetate]
0.18 µM | NC(=O)COc1cccc(-c2ccc(-n3cc(NC(N)=O)c(C(N)=O)n3)cc2)c1 [Example 175, 4-[(aminocarbonyl)amino]-1-[3′-(2-amino-2-oxoethoxy)-1,1′-biphenyl-4-yl]-1H-pyrazole-3-carboxamide]
0.86 µM | N#CCCc1cccc(-c2ccc(-n3cc(NC(N)=O)c(C(N)=O)n3)cc2)c1 [Example 186, 4-[(aminocarbonyl)amino]-1-[3′-(2-cyanoethyl)-1,1′-biphenyl-4-yl]-1H-pyrazole-3-carboxamide]
0.821 µM | NC(=O)Nc1cn(-c2ccc(-c3ccc(-c4nnn[nH]4)cc3)cc2)nc1C(N)=O [Example 187, 4-[(aminocarbonyl)amino]-1-[4′-(1H-tetrazol-5-yl)-1,1′-biphenyl-4-yl]-1H-pyrazole-3-carboxamide]
0.237 µM | NC(=O)Nc1cn(-c2ccc(S(=O)(=O)C3CCCCC3)cc2)nc1C(N)=O [Example 192, 1-(3-carbamoyl-1-(4-(cyclohexylsulfonyl)phenyl)-1H-pyrazol-4-yl)urea]
0.15 µM | NC(=O)Nc1cn(-c2ccc(S(=O)(=O)c3ccccc3F)cc2)nc1C(N)=O [Example 194, 1-(1-(4-(2-fluorophenylsulfonyl)phenyl)-3-carbamoyl-1H-pyrazol-4-yl)urea]
0.013 µM | NC(=O)Nc1cn(-c2ccc(S(=O)(=O)c3ccc(F)cc3)cc2)nc1C(N)=O [Example 204, 1-(1-(4-(4-fluorophenylsulfonyl)phenyl)-3-carbamoyl-1H-pyrazol-4-yl)urea]
1.13 µM | NC(=O)Nc1cn(-c2ccc(Sc3ccccn3)cc2)nc1C(N)=O [Example 205, 1-(3-carbamoyl-1-(4-(pyridin-2-ylthio)phenyl)-1H-pyrazol-4-yl)urea]
1.04 µM | COc1ccc(-n2cc(NC(N)=O)c(C(N)=O)n2)cc1Cl [Example 209, 4-[(Aminocarbonyl)amino]-1-(3-chloro-4-methoxyphenyl)-1H-pyrazole-3-carboxamide]
0.322 µM | NC(=O)Nc1cn(-c2ccc(I)cc2)nc1C(N)=O [Example 215, 4-[(aminocarbonyl)amino]-1-(4-iodophenyl)-1H-pyrazole-3-carboxamide]
